Measured values published in patent publication EP0521310A2, “Solid dispersion tablets containing 1,4-dihydropyridine derivatives and process for the preparation thereof” (FUJIREBIO Inc., priority 1991, dated 1993).

Experiment: thermal analysis (DSC) of solid dispersions, conversion to amorphous form
Format: physicochemical
Protocol: HPC and FRC8653, in the propotion of 1, 2, 3, 4 or 5 parts by weight of HPC based on one part by weight of FRC8653, were added to the mixed solvent of methanol/dichloromethane and dissolved, followed by removal of the solvent and drying. The samples obtained were subjected to thermal analysis (DSC).
Both HP55 (Shin-Etsu Chemical Co.) and FRC8653, in the proportion of 1, 2, 3, 4 or 5 parts by weight of HP55 based on one part by weight of FRC8653, were added to the mixed solvent of methanol/dichloromethane and dissolved, followed by removal of the solvent and drying in order to subject to thermal analysis (DSC). The amount of HP55 necessary to convert the FRC8653 into its amorphous form was 2 parts by weight or more per one part by weight of FRC8653.

## COCCOC(=O)C1=C(C)NC(C)=C(C(=O)OC/C=C/c2ccccc2)C1c1cccc([N+](=O)[O-])c1 (racemic) [FRC8653, 2-methoxyethyl (E)-3-phenyl-2-propen-1-yl (+/-)-1,4-dihydro-2,6-dimethyl-4-(3-nitrophenyl)-3,5-pyridinedicarboxylate]
Fig. 3
  amount of HPC required to convert FRC8653 into its amorphous form: ≥ 4 parts by weight per one part b
Fig. 6
  amount of HP55 necessary to convert the FRC8653 into its amorphous form: ≥ 2 parts by weight per one part b
